Experimental data as given in patent US12509407B2, “Biostimulant agent for treating plants and/or plant seed” (UNIFERX INTERNATIONAL GMBH, priority 2019, dated 2025).

What was measured:
Assay type in all cases: in vivo
corn hybrid DKC 3511 = experiment: Comparative test 1: field trial, growth of leaf area of corn under heat stress; settings: corn DKC 3511, heat stress >30° C., 10 days after single spray treatment, 1.15 liters protein hydrolysate and/or 0.68 kilograms glycine betaine per hectare
Experimental: In a first field trial, the effect of the biostimulant agent according to the invention on the Growth of the leaf area of the corn hybrid DKC 3511 under heat stress was investigated. For comparison, the corresponding effect of the individual components protein hydrolysate and betaine was tested in parallel, each in the same amounts as contained in the biostimulant agent.
The field trial was conducted in June 2019 on soils with brittle black earth. The humus content was 3.2-3.4% and the depth of the humus layer was 60-70 cm. Soil pH was 6.2-6.6, alkaline hydrolyzed nitrogen content was […] per kilogram, available phosphorus compounds content was […] per kilogram, and available potassium content was 120-130 grams per kilogram. […]
(§1) All three groups of plants were treated once with the corresponding solution at the same times and with the same quantities. […]
(§2) To determine the biological effect of the different treatments, the leaf area of the plants (sum of leaf area from the third to the sixth leaf from the top in square meters per hectare of field area) was determined in each case before the start of the treatments and 10 days after the treatment. Thereby, the biological effect corresponds to the determined increase of the leaf area at the end of the study period in percent.

[1] = system: sunflower hybrid SI Diamantis; experiment: Comparative test 2: field trial, growth of leaf area of sunflowers under heat stress; settings: heat stress >30° C., 10 days after treatment
Experimental: (§3) The field trial was conducted in June 2019 on soils with brittle black earth. The humus content was 3.2-3.4% and the depth of the humus layer was 60-70 cm. Soil pH was 6.2-6.6, alkaline hydrolyzed nitrogen content was […] per kilogram, available phosphorus compounds content was […] per kilogram, and available potassium content was […] per kilogram. The average annual precipitation was 633 millimeters, whereas the precipitation in June was 87 millimeters. The average annual temperature was 7.4° C., the average temperature in June was 17.6° C., the average relative humidity was 76%, and the average relative humidity in June was 66%.
(§4) During the duration of the field trial, the treated plants were exposed to heat stress with daily temperatures exceeding 30° C. […]
as §1
as §2, with “percent. […]” for “percent.”

soybean var. Niagara = experiment: Comparative test 3: field trial, increase in leaf area of soybean under heat stress; settings: 10 days after treatment, third to sixth leaf from the top
Experimental: as §3, §4, §1
as §2, with “percent. […]” for “percent.”

Structure (SMILES): C[N+](C)(C)CC(=O)O [betaine, glycine betaine]
- increase in leaf area (biological effect) (corn hybrid DKC 3511): 0.2%
- increase in leaf area (biological effect) [1]: no increase in leaf area was observed at all
- increase in leaf area (biological effect) (soybean var. Niagara): no increase in leaf area was observed at all
